For orientation: EC50 means the concentration at which the effect is half-maximal.

This experiment addresses T1, NLRP3 inflammasome (Homo sapiens, UniProt Q96P20).
T1 construct: host or cells: THP-1 human monocytic cells, treated with PMA and stimulated with gramicidin
Briefly: ASC-SPECK formation in THP-1 cells after gramicidin stimulation (NLRP3 inflammasome activation). It counts as cell-based. The following applies: PMA-treated human monocytic THP-1 cells; compound 1 h before 12.5 μg/ml gramicidin, 3-hour treatment; ASC SPECK imaging; read-out: EC50 values (nM) for Examples that inhibit NLRP3 inflammasome activation. How it is done:
The ability of compounds to inhibit NLRP3 inflammasome activation was determined in vitro by monitoring formation of the ASC-SPECK in human monocytic THP-1 cells after stimulation. THP-1 cells (ATCC catalog #TIB-202) were maintained in complete growth media containing Roswell Park Memorial Institute RPMI (ATCC catalog #30-2001), 10% heat inactivated fetal bovine serum, 1× penicillin/streptomycin and 0.05 mM 2-mercaptoethanol. At the start of the assay, undifferentiated THP-1 cells were plated at a density of 20,000 cells per well in a 384-well plate (Poly-D-lysine coated Cell Carrier Ultra microplate, Perkin Elmer catalog #6057500) in complete growth media supplemented with 10 ng/ml phorbol 12-myristate 13-acetate (PMA; Sigma catalog #P8139), and then incubated overnight. The next day, media was replaced with assay media [RPMI (Gibco catalog #11875-093), 0.01% bovine serum albumin (BSA)]. Compounds were serially diluted in DMSO and then added to wells one hour prior to the addition of 12.5 μg/ml Gramicidin (Enzo Lifescience, catalog #ALX-350-233-M005). All incubations were carried out at 37° C. (5% CO2/95% air). Following a 3-hour treatment with gramicidin, cells are fixed with 4% paraformaldehyde and stored at 4° C. until immunofluorescence staining.
Immunofluorescence staining: Anti-ASC antibody (MBL catalog #D086-3) was desalted and labeled with Alexa 488 antibody labeling kit (Thermo catalog #A20181) prior to use as described below. After fixation, the following steps were carried out at room temperature. Cells were first permeabilized with 0.3% Triton X-100 in phosphate-buffered saline (PBS) for 15 minutes and then incubated in blocking buffer containing 5% goat serum, 0.3% tween-20 and 0.03% sodium azide in PBS for 1 hour. Cells were stained with a mixture of ASC-Alexa 488 antibody (diluted 1:200 in blocking buffer) and nuclear stain DRAQ5 (1:5000 in blocking buffer, Thermo catalog #62251) in blocking buffer for 1 hour. Following a wash with 0.3% Tween-20 in PBS, plates were imaged with an Opera Phenix High Content Screening System. The number of DRAQ5 positive cells containing ASC SPECKS were quantified in each well.
Data analysis: EC50 values were calculated by standard curve-fitting analysis using an internally developed program in TIBCO Spotfire software.

T1 sequence (Q96P20 whole entry): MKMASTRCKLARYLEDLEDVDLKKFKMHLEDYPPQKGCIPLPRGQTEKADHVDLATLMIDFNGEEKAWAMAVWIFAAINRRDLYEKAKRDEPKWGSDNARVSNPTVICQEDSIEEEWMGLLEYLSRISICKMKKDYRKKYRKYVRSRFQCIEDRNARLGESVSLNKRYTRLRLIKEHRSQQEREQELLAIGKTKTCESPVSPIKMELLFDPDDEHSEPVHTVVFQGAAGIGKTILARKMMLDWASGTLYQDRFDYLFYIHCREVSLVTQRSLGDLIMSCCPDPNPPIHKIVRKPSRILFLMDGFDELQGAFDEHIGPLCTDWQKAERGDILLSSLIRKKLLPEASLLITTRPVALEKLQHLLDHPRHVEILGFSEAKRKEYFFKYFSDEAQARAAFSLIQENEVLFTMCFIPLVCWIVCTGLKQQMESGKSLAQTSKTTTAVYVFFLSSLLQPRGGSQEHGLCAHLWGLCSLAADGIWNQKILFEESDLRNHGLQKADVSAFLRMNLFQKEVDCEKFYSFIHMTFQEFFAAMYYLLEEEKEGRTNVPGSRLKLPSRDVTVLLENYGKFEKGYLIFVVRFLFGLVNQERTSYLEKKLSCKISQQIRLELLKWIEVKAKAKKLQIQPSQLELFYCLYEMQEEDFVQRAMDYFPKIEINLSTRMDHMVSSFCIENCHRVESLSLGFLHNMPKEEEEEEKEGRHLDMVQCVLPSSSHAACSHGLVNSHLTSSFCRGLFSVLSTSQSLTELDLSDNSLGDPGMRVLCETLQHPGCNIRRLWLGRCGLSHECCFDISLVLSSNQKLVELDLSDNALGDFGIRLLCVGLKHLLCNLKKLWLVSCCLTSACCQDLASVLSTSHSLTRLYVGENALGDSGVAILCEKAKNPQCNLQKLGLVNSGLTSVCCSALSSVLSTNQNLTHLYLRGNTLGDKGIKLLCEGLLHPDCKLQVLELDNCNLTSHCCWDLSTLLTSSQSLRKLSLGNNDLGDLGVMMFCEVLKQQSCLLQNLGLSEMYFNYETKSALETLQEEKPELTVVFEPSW

As for `Cc1c(-c2ccc(C(F)(F)F)cc2O)nnc2c1ncn2[C@@H]1CC[C@@H]2CC[C@H]1N2` (single isomer, unassigned) [Example 24], the EC50 was determined as 130 nM.

For the compound `CN1CCCC(n2cnc3cc(-c4ccc(C(F)(F)F)cc4O)nnc32)C1` (racemic) [Example 8, (R and S)-2-(7-(1-methylpiperidin-3-yl)-7H-imidazo[4,5-c]pyridazin-3-yl)-5-(trifluoromethyl)phenol], the EC50 stood at 1000 nM. Consider `Cc1c(-c2ccc(C(F)(F)F)cc2O)nnc2c1ncn2[C@H]1CNCC[C@H]1O` [Example 6, (3S,4R)-3-(3-(2-hydroxy-4-(trifluoro-methyl)phenyl)-4-methyl-7H-imidazo[4,5-c]pyridazin-7-yl)piperidin-4-ol], for which the EC50 is 550 nM. The figure for `Cc1c(-c2ccc(C(F)(F)F)cc2O)nnc2c1ncn2[C@H]1CC[C@H]2CC[C@@H]1N2C` (single isomer, unassigned) [Example 28] is 1410 nM. Regarding `Cc1c(-c2ccc(C(F)(F)F)cc2O)nnc2c1ncn2[C@H]1CC[C@H]2CC[C@@H]1N2` (single isomer, unassigned) [Example 25], the EC50 amounted to 1010 nM. For `Cc1c(-c2ccc3c(c2O)CC(F)(F)C3)nnc2c1ncn2[C@@H]1CCCN(C)C1` [Example 21, (R)-2,2-difluoro-5-(4-methyl-7-(1-methylpiperidin-3-yl)-7H-imidazo[4,5-c]pyridazin-3-yl)-2,3-dihydro-1H-inden-4-ol], the EC50 was 996 nM. Consider `Cc1c(-c2ccc(C(F)(F)F)cc2O)nnc2c1ncn2[C@@H]1CCCN(C(C)C)C1` [Example 22, (R)-2-(7-(1-isopropylpiperidin-3-yl)-4-methyl-7H-imidazo[4,5-c]pyridazin-3-yl)-5-(trifluoromethyl)phenol], for which the EC50 was 20 nM.

On to `Cc1c(-c2ccc(C(F)(F)F)cc2O)nnc2c1ncn2[C@@H]1CCCN2CCC[C@@H]12` (single isomer, unassigned) [Example 34], for which the EC50 is 87 nM. The figure for `Cc1c(-c2ccc(C(F)(F)F)cc2O)nnc2c1ncn2[C@@H]1CCCNC1` [Example 5, (R)-2-(4-methyl-7-(piperidin-3-yl)-7H-imidazo[4,5-c]pyridazin-3-yl)-5-(trifluoromethyl)phenol] is 143 nM. Turning to `Cc1c(-c2ccc(C(F)(F)F)cc2O)nnc2c1ncn2C12CCCC(N)(C1)C2` [Example 32, 2-(7-(5-aminobicyclo[3.1.1]heptan-1-yl)-4-methyl-7H-imidazo[4,5-c]pyridazin-3-yl)-5-(trifluoromethyl)phenol], the EC50 was determined as 47 nM. For the compound `CCN1CCC[C@@H](n2cnc3c(C)c(-c4ccc(C(F)(F)F)cc4OC(F)F)nnc32)C1` [Example 9, (R)-3-(2-(difluoromethoxy)-4-(trifluoromethyl)phenyl)-7-(1-ethylpiperidin-3-yl)-4-methyl-7H-imidazo[4,5-c]pyridazine], the EC50 stood at 699 nM.

For the compound `CCN1CCC[C@@H](n2cnc3c(C)c(-c4ccc(Cl)cc4O)nnc32)C1` [Example 18, (R)-5-chloro-2-(7-(1-ethylpiperidin-3-yl)-4-methyl-7H-imidazo[4,5-c]pyridazin-3-yl)phenol], the EC50 came out at 29 nM. With `Cc1c(-c2ccc(C(F)(F)F)cc2O)nnc2c1ncn2[C@H]1CN(C)CC[C@H]1O` [Example 11, (3S,4R)-3-(3-(2-hydroxy-4-(trifluoro-methyl)phenyl)-4-methyl-7H-imidazo[4,5-c]pyridazin-7-yl)-1-methylpiperidin-4-ol], the EC50 came to 147 nM. The figure for `Cc1c(-c2ccc(C(F)(F)F)cc2O)nnc2c1ncn2[C@@H]1CCCN(C)C1` [Example 10, (R)-2-(4-methyl-7-(1-methylpiperidin-3-yl)-7H-imidazo[4,5-c]pyridazin-3-yl)-5-(trifluoromethyl)phenol] is 25 nM; for `Cc1c(-c2ccc3sccc3c2O)nnc2c1ncn2[C@@H]1CCCN(C)C1` [Example 15, (R)-5-(4-methyl-7-(1-methylpiperidin-3-yl)-7H-imidazo[4,5-c]pyridazin-3-yl)benzo[b]thiophen-4-ol] it is 61 nM. The same measure for `Cc1cc(C(F)(F)F)cc(O)c1-c1cc2ncn(C3CCCN(C)C3)c2nn1` (racemic) [Example 4, (R and S)-3-methyl-2-(7-(1-methylpiperidin-3-yl)-7H-imidazo[4,5-c]pyridazin-3-yl)-5-(trifluoromethyl)phenol]: 91 nM. For `CCN1CCC[C@@H](n2cnc3c(C)c(-c4ccc(C(F)(F)F)cc4O)nnc32)C1` [Example 7, (R)-2-(7-(1-ethylpiperidin-3-yl)-4-methyl-7H-imidazo[4,5-c]pyridazin-3-yl)-5-(trifluoromethyl)phenol], the EC50 came out at 13 nM. Turning to `[2H]C([2H])([2H])N1CCC[C@@H](n2cnc3c(C)c(-c4ccc(C(F)(F)F)cc4O)nnc32)C1` [Example 35, (R)-2-(4-methyl-7-(1-(methyl-d3)piperidin-3-yl)-7H-imidazo[4,5-c]pyridazin-3-yl)-5-(trifluoromethyl)phenol], the EC50 is 29 nM.

As to `Cc1c(-c2ccc(C(F)(F)F)cc2O)nnc2c1ncn2[C@@H]1CC[C@@H]2CC[C@H]1N2C` (single isomer, unassigned) [Example 29], the EC50 was 26 nM.

With `Cc1c(-c2ccc(C(F)(F)F)cc2O)nnc2c1nc(C)n2[C@@H]1CCCN(C)C1` [Example 14, (R)-2-(4,6-dimethyl-7-(1-methylpiperidin-3-yl)-7H-imidazo[4,5-c]pyridazin-3-yl)-5-(trifluoromethyl)phenol], the EC50 was 567 nM. Regarding `Cc1c(-c2ccc(Cl)cc2O)nnc2c1ncn2[C@@H]1CCCNC1` [Example 13, (R)-5-chloro-2-(4-methyl-7-(piperidin-3-yl)-7H-imidazo[4,5-c]pyridazin-3-yl)phenol], the 50% effective concentration (EC50) is 320 nM. As for `Cc1c(-c2c(O)cc(Cl)cc2F)nnc2c1ncn2[C@@H]1CCCN(C)C1` [Example 26, 5-chloro-3-fluoro-2-(4-methyl-7-((R)-1-methylpiperidin-3-yl)-7H-imidazo-[4,5-c]pyridazin-3-yl)phenol], the EC50 came out at 81 nM.

On to `Cc1c(-c2ccc(C(F)(F)F)cc2O)nnc2c1ncn2[C@H]1CCCN2CCC[C@H]12` (single isomer, unassigned) [Example 33], for which the EC50 is 1360 nM. `CCN1CCC[C@@H](n2cnc3cc(-c4c(C)cc(C(F)(F)F)cc4O)nnc32)C1` [Example 3, (R)-2-(7-(1-ethylpiperidin-3-yl)-7H-imidazo[4,5-c]pyridazin-3-yl)-3-methyl-5-(trifluoromethyl)phenol]: the EC50 stood at 21 nM.

For `Cc1c(-c2ccc(Cl)cc2O)nnc2c1ncn2[C@@H]1CCCN(C)C1` [Example 17, (R)-5-chloro-2-(4-methyl-7-(1-methylpiperidin-3-yl)-7H-imidazo[4,5-c]pyridazin-3-yl)phenol], the EC50 turned out to be 28 nM. With `Cc1c(-c2ccc(C3CC3)c(F)c2O)nnc2c1ncn2[C@@H]1CCCN(C)C1` [Example 27, (R)-3-cyclopropyl-2-fluoro-6-(4-methyl-7-(1-methylpiperidin-3-yl)-7H-imidazo-[4,5-c]pyridazin-3-yl)phenol], the concentration giving a half-maximal response (EC50) worked out at 1530 nM. As to `Cc1c(-c2ccc3c(c2O)CCC3)nnc2c1ncn2[C@@H]1CCCN(C)C1` [Example 16, (R)-5-(4-methyl-7-(1-methylpiperidin-3-yl)-7H-imidazo[4,5-c]pyridazin-3-yl)-2,3-dihydro-1H-inden-4-ol], the EC50 turned out to be 23 nM.

For the compound `CCN1CCC[C@@H](n2ccc3cc(-c4c(C)cc(C(F)(F)F)cc4O)nnc32)C1` [Example 1, (R)-2-(7-(1-ethylpiperidin-3-yl)-7H-pyrrolo[2,3-c]pyridazin-3-yl)-3-methyl-5-(trifluoromethyl)phenol], the EC50 was 19 nM. Consider `CCN1CC[C@@H](O)[C@@H](n2cnc3c(C)c(-c4ccc(C(F)(F)F)cc4O)nnc32)C1` [Example 12, (3S,4R)-1-ethyl-3-(3-(2-hydroxy-4-(trifluoro-methyl)phenyl)-4-methyl-7H-imidazo[4,5-c]pyridazin-7-yl)piperidin-4-ol], for which the half-maximal effective concentration (EC50) worked out at 103 nM. Turning to `CCN1[C@@H]2CC[C@H]1[C@@H](n1cnc3c(C)c(-c4ccc(C(F)(F)F)cc4O)nnc31)CC2` (single isomer, unassigned) [Example 31], the EC50 amounted to 889 nM.

As for `Cc1c(-c2ccc3c(c2O)CCC3)nnc2c1ncn2[C@@H]1CCCNC1` [Example 19, (R)-5-(4-methyl-7-(piperidin-3-yl)-7H-imidazo[4,5-c]pyridazin-3-yl)-2,3-dihydro-1H-inden-4-ol], the EC50 came out at 53 nM.

The record behind these values is patent publication US20240400571A1, “5,6 UNSATURATED BICYCLIC HETEROCYLES USEFUL AS INHIBITORS OF NOD-LIKE RECEPTOR PROTEIN 3” (Merck Sharp & Dohme LLC, priority 2023, published 2024).
